Test results as given in ChEMBL document CHEMBL1201862, “PubChem BioAssay data set” (2004).
Calls of active or inactive are those of the source.

What was measured:
Bcl-2-like protein 10 = target: T1, Bcl-2-like protein 10 (Homo sapiens, UniProt Q9HD36); experiment: displacers of TR3 peptide from Bcl-B, primary screen, selectivity assay for Bfl-1 inhibitor project, biochemical, fluorescence polarization, FITC-TR3 peptide (AID 748);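 further: fluorescence polarization from a fluorescein-labelled TR3 peptide binding purified Bcl-B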
T1 sequence (Q9HD36 whole entry): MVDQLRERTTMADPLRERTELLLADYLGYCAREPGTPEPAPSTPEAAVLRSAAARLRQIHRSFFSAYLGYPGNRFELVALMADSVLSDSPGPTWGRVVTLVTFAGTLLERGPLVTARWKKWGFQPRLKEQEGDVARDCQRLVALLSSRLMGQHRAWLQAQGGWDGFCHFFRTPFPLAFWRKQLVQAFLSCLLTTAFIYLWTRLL

Estrogen receptor beta = Estrogen receptor beta (Homo sapiens, UniProt Q92731); experiment: ERβ–SRC-3 coactivator interaction inhibitors, confirmation, orthogonal assay, biochemical, ELISA, streptavidin-HRP readout (AID 1060)
Chain of Estrogen receptor beta (Q92731 whole entry): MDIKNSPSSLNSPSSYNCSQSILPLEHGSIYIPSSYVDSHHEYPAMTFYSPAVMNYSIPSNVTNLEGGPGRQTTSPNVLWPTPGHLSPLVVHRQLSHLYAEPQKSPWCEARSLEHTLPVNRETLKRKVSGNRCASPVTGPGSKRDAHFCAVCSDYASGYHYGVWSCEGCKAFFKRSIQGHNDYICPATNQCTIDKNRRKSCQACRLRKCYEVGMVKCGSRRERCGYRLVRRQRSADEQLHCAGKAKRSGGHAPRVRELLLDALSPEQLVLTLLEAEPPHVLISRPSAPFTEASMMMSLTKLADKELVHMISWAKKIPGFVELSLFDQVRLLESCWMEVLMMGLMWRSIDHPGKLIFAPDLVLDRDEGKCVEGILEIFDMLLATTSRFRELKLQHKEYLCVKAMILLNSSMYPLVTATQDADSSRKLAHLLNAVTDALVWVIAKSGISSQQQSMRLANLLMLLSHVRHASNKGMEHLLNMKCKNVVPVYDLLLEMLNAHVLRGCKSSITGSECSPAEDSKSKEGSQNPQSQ

[1] = target: Heat shock protein HSP 90-alpha (Homo sapiens, UniProt P07900); experiment: Luminescence-based dose response biochemical high throughput screening assay for inhibitors of the Heat Shock Protein 90 (HSP90). [Related pubchem assays: 1831 (Summary AID.), 1846 (Confirmation screen.), 1789 (Primary screen.)]
[2] = cytotoxicity in OVCAR8 ovarian cancer cells, dose response, PAX8 project, cell-based, plate reader, dry powder samples (AID 743197); format: functional; conditions: OVCAR-8
[3] = inhibitors of HIV Env-driven cell fusion, dose response, cherry-pick (AID 652057); format: functional, cell-based
[4] = non-specific cell cytotoxicity, dose response, cytotoxicity control for PAX8 inhibitor project, plate reader, dry powder samples (AID 743021); format: functional, cell-based
[5] = IGROV1 ovarian cancer cell cytotoxicity, dose response, PAX8 inhibitor project, plate reader, dry powder samples (AID 743043); format: functional, cell-based; conditions: IGROV-1
Paired box protein Pax-8 = Paired box protein Pax-8 (Homo sapiens, UniProt Q06710); experiment: inhibitors of PAX8-driven TPO luciferase reporter, dose response, RMG-I cells, cherry-pick (AID 687027); format: functional, cell-based;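 further: luciferase reporter driven by Pax8 target thyroperoxidase promoter measured by SteadyGlo luminescence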
Chain of Paired box protein Pax-8 (Q06710 whole entry, the tested form may be a part): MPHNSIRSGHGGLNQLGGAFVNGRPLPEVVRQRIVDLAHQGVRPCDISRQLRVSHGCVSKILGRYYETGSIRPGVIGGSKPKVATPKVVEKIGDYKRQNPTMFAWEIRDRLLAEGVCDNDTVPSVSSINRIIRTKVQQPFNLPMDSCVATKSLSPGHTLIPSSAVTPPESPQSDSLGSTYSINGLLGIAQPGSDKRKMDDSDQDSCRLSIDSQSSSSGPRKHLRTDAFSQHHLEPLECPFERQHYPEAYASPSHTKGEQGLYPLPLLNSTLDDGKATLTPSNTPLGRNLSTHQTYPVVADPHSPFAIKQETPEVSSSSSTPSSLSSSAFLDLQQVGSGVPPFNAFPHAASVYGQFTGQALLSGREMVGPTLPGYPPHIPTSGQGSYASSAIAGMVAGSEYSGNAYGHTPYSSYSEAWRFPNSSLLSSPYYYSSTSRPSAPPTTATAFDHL

[6] = CEM21 lymphoblast cell cytotoxicity, dose response, cytotoxicity control for viral fusion inhibitor project, CellTiter-Glo luminescence, cherry-picked (AID 652042); format: functional, cell-based;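 further: potency for signal decrease meaning cytotoxicity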
[7] = A2780 ovarian cancer cell cytotoxicity, dose response, cytotoxicity control, plate reader, dry powder samples (AID 743046); format: functional, cell-based
[8] = IOSE-T80 ovarian epithelial cell cytotoxicity, dose response, cytotoxicity control for PAX8 inhibitor project, plate reader, dry powder samples (AID 743045); format: functional, cell-based
[9] = ZM109 Env clade C HIV-1 fusion inhibitors, dose response, HeLa effector, CEM target cells, luciferase, cherry-pick (AID 652058); format: functional, cell-based
[10] = NIH:OVCAR-3 ovarian cancer cell cytotoxicity, dose response, PAX8 inhibitor project, plate reader, dry powder samples (AID 743044); format: functional, cell-based
[11] = inhibitors of clade B AD8 Env fusion, dose response, cell-based, cherry-pick (AID 652062); format: functional;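 further: luciferase signal from cell-cell fusion driven by HIV-1 clade B AD8 Env; potency is for inhibitors of fusion seen as a drop in luminescence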
[12] = target: T2, Tyrosine-protein phosphatase non-receptor type 7 (Homo sapiens, UniProt P35236); experiment: inhibitors of human HePTP phosphatase, […], biochemical, absorbance, leukemia target (AID 521); format: functional
T2 sequence (P35236 whole entry): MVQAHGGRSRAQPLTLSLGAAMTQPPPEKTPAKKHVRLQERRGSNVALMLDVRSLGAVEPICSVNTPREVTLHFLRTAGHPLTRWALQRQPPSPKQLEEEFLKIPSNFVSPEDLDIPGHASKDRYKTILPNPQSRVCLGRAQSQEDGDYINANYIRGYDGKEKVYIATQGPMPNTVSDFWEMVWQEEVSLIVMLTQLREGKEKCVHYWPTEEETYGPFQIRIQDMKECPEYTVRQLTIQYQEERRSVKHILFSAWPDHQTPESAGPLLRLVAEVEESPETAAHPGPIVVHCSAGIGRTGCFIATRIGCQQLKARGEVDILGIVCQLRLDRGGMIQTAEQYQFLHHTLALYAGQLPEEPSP

[13] = Dose-response inhibition of insulin secretion in a rat insulinoma line at 5 mM glucose (AID 1117331); format: functional, cell-based; conditions: INS-1E
[14] = Glucagon-like peptide 1 release potency, NCI-H716 cell line, dose-response, half-maximal inhibitory concentration (AID 1117344); format: functional, cell-based
[15] = half-maximal inhibitory concentration for glucagon-like peptide-1 release, STC-1 cell line, dose-response (AID 1117345); format: functional, cell-based
[16] = Luminescence-based cell-based high throughput dose response assay to identify activators of the DAF-12 from the parasite S. stercoralis (ssDAF-12).; format: functional
[17] = target: T3, Oxysterols receptor LXR-beta (Homo sapiens, UniProt P55055); experiment: LXR agonists, Gal4 luciferase reporter, dose response, counter-screen for ssDAF-12 agonist project, cell-based, luminescence, HEK293, S. stercoralis campaign (AID 720737); format: functional; conditions: read-out: IC50 (the source's name)
T3 sequence (P55055 whole entry): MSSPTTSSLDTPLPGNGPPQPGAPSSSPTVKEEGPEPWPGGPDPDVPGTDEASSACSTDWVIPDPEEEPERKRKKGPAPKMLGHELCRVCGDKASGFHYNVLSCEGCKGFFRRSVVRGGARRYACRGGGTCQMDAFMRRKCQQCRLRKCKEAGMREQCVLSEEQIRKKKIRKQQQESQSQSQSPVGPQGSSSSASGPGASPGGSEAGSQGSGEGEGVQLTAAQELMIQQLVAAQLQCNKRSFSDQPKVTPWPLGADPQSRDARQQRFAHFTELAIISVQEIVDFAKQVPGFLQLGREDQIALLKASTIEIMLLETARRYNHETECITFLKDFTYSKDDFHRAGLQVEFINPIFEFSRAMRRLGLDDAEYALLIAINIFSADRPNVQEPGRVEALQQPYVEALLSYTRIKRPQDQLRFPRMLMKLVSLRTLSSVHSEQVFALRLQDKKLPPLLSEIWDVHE

[18] = target: Voltage-gated inwardly rectifying potassium channel KCNH2 (Homo sapiens, UniProt Q12809); experiment: hERG protection from proarrhythmic block, potency, dose response, cell-based, thallium flux (AID 2121); format: ADME
Chain of Voltage-gated inwardly rectifying potassium channel KCNH2 (Q12809 whole entry): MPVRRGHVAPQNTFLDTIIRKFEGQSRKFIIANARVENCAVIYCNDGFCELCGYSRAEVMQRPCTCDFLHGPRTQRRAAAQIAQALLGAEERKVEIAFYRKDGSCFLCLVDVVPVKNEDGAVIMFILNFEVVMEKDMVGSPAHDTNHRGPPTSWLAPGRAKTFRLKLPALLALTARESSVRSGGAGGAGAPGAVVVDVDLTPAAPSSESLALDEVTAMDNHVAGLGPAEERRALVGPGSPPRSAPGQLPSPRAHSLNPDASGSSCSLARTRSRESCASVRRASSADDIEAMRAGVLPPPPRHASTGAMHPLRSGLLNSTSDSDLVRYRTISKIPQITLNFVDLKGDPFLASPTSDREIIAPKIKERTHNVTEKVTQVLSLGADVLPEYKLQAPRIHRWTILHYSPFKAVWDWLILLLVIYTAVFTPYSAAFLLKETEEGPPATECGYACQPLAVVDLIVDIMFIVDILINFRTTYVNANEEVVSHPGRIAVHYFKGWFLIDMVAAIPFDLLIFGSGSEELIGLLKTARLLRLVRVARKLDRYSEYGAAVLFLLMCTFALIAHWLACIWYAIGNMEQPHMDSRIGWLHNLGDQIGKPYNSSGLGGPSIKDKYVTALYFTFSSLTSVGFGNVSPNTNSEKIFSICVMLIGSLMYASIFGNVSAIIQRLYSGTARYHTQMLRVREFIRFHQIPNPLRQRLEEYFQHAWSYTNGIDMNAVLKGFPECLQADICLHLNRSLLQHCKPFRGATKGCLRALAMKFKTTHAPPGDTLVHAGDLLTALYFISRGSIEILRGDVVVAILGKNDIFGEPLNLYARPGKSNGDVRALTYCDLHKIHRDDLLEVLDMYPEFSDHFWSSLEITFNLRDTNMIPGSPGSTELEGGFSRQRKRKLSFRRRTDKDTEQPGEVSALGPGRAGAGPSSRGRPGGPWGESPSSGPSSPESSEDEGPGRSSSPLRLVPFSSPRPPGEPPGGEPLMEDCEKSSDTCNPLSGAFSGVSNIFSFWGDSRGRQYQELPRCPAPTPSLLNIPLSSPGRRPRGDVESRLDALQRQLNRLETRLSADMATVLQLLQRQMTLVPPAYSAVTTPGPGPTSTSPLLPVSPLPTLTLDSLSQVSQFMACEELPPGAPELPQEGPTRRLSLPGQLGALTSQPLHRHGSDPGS

[19] = target: NAD-dependent protein deacylase sirtuin-5, mitochondrial (Homo sapiens, UniProt Q9NXA8); experiment: SIRT5 desuccinylase inhibitors, dose response, biochemical, fluorescence imaging, cherry-pick, set 5 (AID 720591);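 further: desuccinylation of succinyl peptide AMC substrate read as fluorescence after trypsin release; potency of inhibitors that lower fluorescence and may act on trypsin instead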
Chain of NAD-dependent protein deacylase sirtuin-5, mitochondrial (Q9NXA8 whole entry): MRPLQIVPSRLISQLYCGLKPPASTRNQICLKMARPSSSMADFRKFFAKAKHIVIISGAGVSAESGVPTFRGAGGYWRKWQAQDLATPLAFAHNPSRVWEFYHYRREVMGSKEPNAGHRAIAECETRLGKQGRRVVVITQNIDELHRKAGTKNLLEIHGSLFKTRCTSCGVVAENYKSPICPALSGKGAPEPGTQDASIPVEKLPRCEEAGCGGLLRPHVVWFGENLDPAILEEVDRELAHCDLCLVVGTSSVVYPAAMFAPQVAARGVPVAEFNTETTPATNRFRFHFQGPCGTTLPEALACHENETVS

[20] = PAX2 cell-based inhibition, dose response, selectivity assay for PAX8 inhibitor project, plate reader, dry powder samples (AID 743048); format: functional;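 further: HEK293 cells carrying a WT1 promoter luciferase reporter driven by expressed Pax2; potency is for inhibition of Pax2 driven reporter signal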
[21] = cytotoxicity in OVCAR4 cells, dose response, cytotoxicity control for PAX8 inhibitor project, cell-based, plate reader, dry powder, SA11 (AID 743150); format: functional; conditions: OVCAR-4
[22] = cytotoxicity dependent on PAX8, dose response, cell-based, plate reader, dry powder (AID 743049); format: functional
[23] = PAX5 activity inhibitors, dose response, selectivity assay for PAX8 inhibitor project, cell-based, plate reader, dry powder samples (AID 743047); format: functional;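 further: HEK293 cells carrying a Pax5 driven CD19 promoter luciferase reporter; potency of inhibitors that lower reporter luminescence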
[24] = cytotoxicity in COV362 ovarian cancer cells, dose response, cytotoxicity control for PAX8 inhibitor project, cell-based, plate reader, dry powder, SA12 (AID 743144); format: functional
[25] = cytotoxicity in COV434 cells, dose response, cytotoxicity control for PAX8 inhibitor project, cell-based, plate reader, dry powder, SA7 (AID 743145); format: functional
[26] = MC4R antagonists, dose response, counter-screen for LGR2 antagonist project, cell-based, plate reader, cherry pick (AID 743444); format: functional;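 further: transfected HEK 293 cells stimulated with alpha-MSH peptide; potency of inhibitors of the alpha-MSH evoked signal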
[27] = off-target signal loss in HeLa-CEM21 co-culture – HeLa F-luc CTL cells, cherry-picked, counter-screen for HIV-1 Env fusion inhibitor project, dose response (AID 652040); format: functional, cell-based;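 further: potency for signal decrease marking cytotoxic or nonspecific inhibition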
[28] = inhibitors of SNCA 5'UTR-driven translation, confirmation, luminescence, H4 neuroglioblastoma cells, dose confirmation (AID 2454); format: functional, cell-based;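 further: H4 neuroglioblastoma cells carrying an alpha-synuclein 5'UTR luciferase reporter; potency for inhibition of the luciferase signal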
[29] = cytotoxicity in HEK-293T NF-kB-Luc cells, dose response, cytotoxicity control for B/T-cell NF-kB inhibitor project, cell-based, uHTS hits (AID 489019); format: functional;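 further: IC50 reflects cytotoxicity as loss of cell viability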
[30] = luciferase reporter signal reduction – luminescence, H4-C neuroglioblastoma cells, dose response (AID 2458); format: functional, cell-based;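 further: H4 neuroglioblastoma cells stably carrying a luciferase reporter gene fusion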
Jurkat = experiment: antigen receptor-induced NF-kB inhibitors, dose response, Jurkat, luciferase reporter, luminescence, B- and T-cell (AID 489004); format: functional, cell-based; conditions: Homo sapiens;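 further: NF-kB luciferase reporter Jurkat cells stimulated with PMA plus ionomycin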
[31] = inhibitors of SNCA 5'UTR-driven reporter translation, confirmation, H4 neuroglioma cells, luminescence (AID 1988); format: functional, cell-based
cells = format: functional, cell-based
[32] = LGR2 antagonists, dose response, cell-based, HEK293, CRE-luciferase reporter, cherry pick, set 2 (AID 743343); format: functional;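 further: transfected cells were stimulated with diluted bursicon conditioned medium after compound addition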
[33] = P. falciparum ATP4 D1247Y mutant growth inhibitors, dose response, NITD609-resistant line, SYBR Green, dry powder (AID 1159571); format: functional, cell-based;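 further: parasites synchronized at ring stage by sorbitol before testing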
[34] = P. falciparum Dd2 growth inhibitors, dose response, SYBR Green, cherry-picked samples (AID 1159567); format: functional, cell-based
[35] = inhibitors of PGC1a acetylation in cells, dose response, cell-based, cherry-picked samples (AID 720514); format: functional;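 further: potency may reflect raised or lowered acetylation signal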
[36] = P. falciparum 3D7-ScDHODH growth inhibitors, dose response, SYBR Green, dry powder samples (AID 1159570); format: functional, cell-based;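 further: parasite growth measured after 72 hours of compound exposure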
[37] = P. falciparum Dd2 growth inhibitors, dose response, SYBR Green, dry powder samples (AID 1159566); format: functional, cell-based;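 further: potency for growth inhibition with lower SYBR green DNA signal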
[38] = HepG2 cell cytotoxicity, dose response, cytotoxicity control, plate reader, dry powder samples (AID 1159569); format: functional, cell-based;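 further: inhibitor potency with signal falling toward the positive control level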
[39] = A Cell Based Secondary Assay To Explore Cytotoxicity of Compounds that Sensitize Mycobacterium Tuberculosis to Beta-Lactam Antibiotics.; format: functional
[40] = cytotoxicity in KRAS-transformed pancreatic duct cells, primary screen, cell-based, fluorescence, HTS (AID 431); format: functional; conditions: Homo sapiens;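 further: cell line used: HPDE-C7K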
[41] = cytotoxicity in HPDE-C7 cells, cell-based, fluorescence, HTS (AID 430); format: functional; conditions: Homo sapiens

COc1ccc(NC(=O)c2noc3c2CCC3)cc1
IC50 (Bcl-2-like protein 10): 12.6 µM (active)
IC50 (Estrogen receptor beta): < 0.023 µM (not active)

Cc1ccc(OCc2ccc(C(=O)O)o2)cc1C
IC50 [1]: 1.75 µM (active)

C[C@@H]1CN([C@@H](C)CO)C(=O)Cc2cc(NS(=O)(=O)c3ccccc3)ccc2O[C@H]1CN(C)Cc1ccc(Cl)c(Cl)c1
AC50 [2]: 11.5 µM (active)
AC50 [3]: 8.55 µM (active)
AC50 [4]: 3.32 µM (active)
AC50 [5]: 5.66 µM (active)
AC50 (Paired box protein Pax-8): 2.42 µM (active)
AC50 [6]: 20.3 µM (active)
AC50 [7]: 24.9 µM (active)
AC50 [8]: 10.8 µM (active)
AC50 [9]: 0.289 µM (active)
AC50 [10]: 11 µM (active)
AC50 [11]: 1.19 µM (active)

CCn1c(COc2ccccc2)nnc1SCC(=O)NC1CCCCC1
IC50 [12]: > 100 µM (not active)

CCCCCNC(=N)N/N=C/c1c[nH]c2ccc(OC)cc12 [TEGASEROD]
IC50 [13]: 16.8 µM (inactive)
IC50 [14]: 10.9 µM (inactive)
IC50 [15]: > 40 µM (inactive)

COc1cc(SC)ccc1C(=O)Nc1ccc2c(c1)CCC2
IC50 [16]: > 67.5 µM (inactive)
EC50 [17]: > 67.5 µM (inactive)

Cc1ccc(C(=O)CC(=O)c2cccc(F)c2)c(O)c1
EC50 [18]: 3.76 µM (active)

CS(=O)(=O)c1sc(C(=O)NC(=S)Nc2ccc(OC(F)(F)F)cc2)c2c1C=CCC2
EC50 [18]: 1.01 µM (active)

O=S(=O)(c1ccc(NC2=NN=C(c3cc(F)ccc3F)CS2)cc1)N1CCOCC1
AC50 [19]: > 30 µM (inactive)

N=c1c2c3c(sc2ncn1CCN1CCOCC1)CCCC3
IC50 [12]: > 100 µM (not active)

CC1=C(C(=O)O)N2C(=O)[C@@H](NC(=O)[C@H](N)c3ccccc3)[C@H]2SC1 [CEPHALEXIN ANHYDROUS]
IC50 [14]: > 40 µM (inactive)
IC50 [15]: > 40 µM (inactive)

N#C[C@@H]1[C@H](c2ccc(C#CC3CCCC3)cc2)[C@H](CO)N1C(=O)Nc1ccc(F)cc1
AC50 [20]: 9.84 µM (active)
AC50 [2]: > 70 µM (inactive)
AC50 [21]: 18.8 µM (active)
AC50 [22]: 19.8 µM (active)
AC50 [23]: 9.89 µM (active)
AC50 [24]: 62.6 µM (active)
AC50 (Paired box protein Pax-8): 10.5 µM (active)
AC50 [7]: 19.4 µM (active)
AC50 [25]: 46.9 µM (active)

CCN(Cc1nc(-c2ccccc2)no1)C(=O)c1ccco1
AC50 [19]: > 30 µM (inactive)

Cc1ccc(C(=O)CN2C(=O)c3ccccc3S2(=O)=O)cc1
AC50 [26]: 0.548 µM (active)
AC50 [27]: 3.11 µM (active)
EC50 [28]: 0.363 µM (active)
AC50 [3]: 1.81 µM (active)
IC50 [29]: > 80 µM (inactive)
EC50 [30]: 0.263 µM (active)
IC50 (Jurkat): 1.57 µM (active)
EC50 [31]: < 0.1 µM (active)
IC50 [1]: 4.64 µM (active)
AC50 [9]: 17.9 µM (active)
EC50 (cells): 0.315 µM (active)
AC50 [11]: 4.12 µM (active)
AC50 [32]: 0.594 µM (active)

COc1cccc(-c2ccc([C@@H]3[C@@H]4CN(C(=O)C5CC5)C[C@H]3N4)cc2)c1
AC50 [33]: 1.03 µM (active)
AC50 [34]: 0.949 µM (active)
AC50 [35]: 24.1 µM (active)
AC50 [2]: 39 µM (active)
AC50 [36]: 0.85 µM (active)
AC50 (Paired box protein Pax-8): 3.06 µM (active)
AC50 [37]: 0.634 µM (active)
AC50 [38]: 34.3 µM (active)
AC50 [10]: 43.6 µM (active)

C[C@H](CO)N1C[C@H](C)[C@@H](CN(C)Cc2ccc(-c3ccccc3)cc2)OCc2ccccc2-c2c(n(C)c3ccccc23)C1=O
AC50 [33]: 1.46 µM (active)
AC50 [34]: 2.35 µM (active)
AC50 [36]: 2.06 µM (active)
AC50 [37]: 0.865 µM (active)
AC50 [38]: 19.1 µM (active)

CC(O)/C=C/c1ccc2ccccc2n1 (stereo unspecified)
CC50 [39]: 35.2 µM (active)
EC50 [40]: > 20 µM (not active)
EC50 [41]: 17.8 µM (active)
